We go through 22 compounds from patent US7285396B1, “Aβ-heme peroxidase” (Children's Hospital & Research Center at Oakland, priority 2006, dated 2007).

One series addresses T1, Aβ-heme peroxidase (Homo sapiens, UniProt P05067).
T1 construct: Amyloid-β (Aβ) peptide (American Peptide, Sunnyvale, Calif.) is dissolved in distilled deionized water; purchased American Peptide, Sunnyvale, Calif
As to the kind of experiment: Inhibition of Aβ-heme peroxidase activity (TMB assay or HPLC); inhibitor screen. The note with it: for identified as inhibitor of Aβ-heme peroxidase activity in library screen: TMB assay; for peroxidase activity of Aβ-heme: TMB assay or HPLC. Format: biochemical.

The test system of series [1] is Tg2576 APPSw transgenic mouse. The note with it: curcumin-treated Tg2576 APPSw mouse; Lim et al 2001; cited from earlier work.
In series [2] the test system is Tg2576 APPSw transgenic mouse. To be noted: chronic dose of curcumin, APPSw mice; Lim 2001; cited from earlier work.
Another series has as its target Aβ(1-42) (Homo sapiens, UniProt P05067). The note with it: reference 13; cited from earlier work.
A further series deals with Aβ(1-40) (Homo sapiens, UniProt P05067). The note with it: reference 13; cited from earlier work.
Sequence of Aβ(1-40) (P05067 672-711 limits assumed): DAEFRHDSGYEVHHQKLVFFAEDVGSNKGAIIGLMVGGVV
The subject of series [3] is human neuroblastoma (SHSY5Y) cells. Description: Effect of Aβ on heme synthesis in SHSY5Y cells. Format: cell-based. Here is the method:
(§1) The effect of Aβ on heme synthesis was used to test the biological effect of the Aβ and heme interaction. We expected an increase in heme synthesis due to depletion of regulatory heme if the binding between heme and Aβ occurs in the cell. […] A 40% increase in heme synthesis was seen after 2 h incubation with 0.1 μM Aβ. A 4-fold and 13-fold increase in heme synthesis was seen after 1 h of incubation with 1 and 10 μM Aβ, respectively. A 2.5-fold and 18-fold increase in heme synthesis was seen after 2 h of incubation with 1 and 10 μM Aβ, respectively. An increase in the uptake of cofactors of heme biosynthesis is necessary to support heme synthesis. […] A 55% increase in iron was seen after 2 h of incubation with 0.1 μM Aβ. […] A 2-fold and 8-fold increase in iron uptake was seen after 2 h of incubation with 1 and 10 μM Aβ, respectively. The exposure of SHSY5Y cells to Aβ was not toxic as measured by trypan blue exclusion tests and compared with controls.

The subject of another series is SHSY5Y cells. Format: cell-based, human. Here is the method:
as §1

Series [4] deals with human neuroblastoma (SHSY5Y) cells. Description: Effect of Aβ on intracellular iron / iron uptake in SHSY5Y cells. The class given is cell-based.

T1 sequence (P05067 672-711 limits assumed): as above
Sequence of Aβ(1-42) (P05067 672-713 limits assumed): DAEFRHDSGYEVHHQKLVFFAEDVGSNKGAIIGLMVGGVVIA

As to `Cc1cc(N(C)C)cc2[s+]c3cc(N(C)C)cc(C)c3nc12` [1-9-dimethyl methylene blue], the “identified as inhibitor of Aβ-heme peroxidase activity in library screen” value (from here on “identified as inhibitor”) at Aβ-heme peroxidase is “inhibitors”.

Consider `O=C(O)CCNO` [N-(2-carboxyethyl)hydroxylamine], for which, on Aβ-heme peroxidase, the “identified as inhibitor” value was “inhibitors”.

With `O=[N+]([O-])CCCNO` [N-(3-nitropropyl)hydroxylamine], at Aβ-heme peroxidase, the “identified as inhibitor” value is listed as “inhibitors”.

Turning to `OCCCCNO` [N-(4-hydroxybutyl)hydroxylamine], the “identified as inhibitor” value at Aβ-heme peroxidase is reported as “inhibitors”.

Turning to `CC(=O)NO` [N-(acetyl)hydroxylamine], the “identified as inhibitor” value at Aβ-heme peroxidase is “inhibitors”.

Regarding `O=C(CNO)Cc1ccccc1` [N-(benzylcarbonyl)methylhydroxylamine], at Aβ-heme peroxidase, the “identified as inhibitor” value was “inhibitors”.

As for `ONCc1ccccc1` [N-benzylhydroxylamine (NBHA), N-benzylhydroxylamine], at Aβ-heme peroxidase (100 μM N-benzylhydroxylamine), the “peroxidase activity of Aβ-heme” value was “significantly inhibited”.

Regarding `ONC1CCCCC1` [N-cyclohexylhydroxylamine], on Aβ-heme peroxidase, the “identified as inhibitor” value is listed as “inhibitors”.

Consider `CC(C)NO` [N-isopropylhydroxylamine], for which the “identified as inhibitor” value on Aβ-heme peroxidase was “inhibitors”.

As for `CC(C)(C)NO` [N-tert-butylhydroxylamine], the “identified as inhibitor” value at Aβ-heme peroxidase was “inhibitors”.

With `CN(C)c1ccc2nc3ccc(N)cc3[s+]c2c1.[Cl-]` [azure A], on Aβ-heme peroxidase, the “identified as inhibitor” value is “inhibitors”.

Turning to `CNc1ccc2nc3ccc(N)cc3[s+]c2c1.[Cl-]` [azure C], at Aβ-heme peroxidase, the “identified as inhibitor” value is reported as “inhibitors”.

On to `COc1cc(/C=C/C(=O)CC(=O)/C=C/c2ccc(O)c(OC)c2)ccc1O` [curcumin], for which the oxidative damage result in series [1] is listed as “reduced oxidative damage”. At Aβ-heme peroxidase (1 μM curcumin), the “peroxidase activity of Aβ-heme” value is recorded as “significantly inhibited”. In series [2], the “insoluble Aβ” value is “significantly reduces” and the “soluble Aβ” value is reported as “significantly reduces”.

Turning to `C=CC1=C(C)c2cc3[n-]c(cc4[n-]c(cc5nc(cc1n2)C(C)=C5C=C)c(C)c4CCC(=O)O)c(CCC(=O)O)c3C.[Fe+2]` [heme], on Aβ(1-42), the “aggregation of Aβ(1-42)” value was “prevented aggregation”. In addition, at Aβ(1-40), the “aggregation of Aβ(1-40)” value is reported as “prevented aggregation”.

Turning to `CCNc1cc2[s+]c3cc(NCC)c(C)cc3nc2cc1C.[Cl-]` [new methylene blue], at Aβ-heme peroxidase, the “identified as inhibitor” value is listed as “inhibitors”.

On to `Cc1cc2nc3ccc(N(C)C)cc3[s+]c2cc1N.[Cl-]` [toluidine blue], for which, at Aβ-heme peroxidase, the “identified as inhibitor” value was “inhibitors”.

Consider “Aβ: Amyloid-β (Aβ) peptide (American Peptide, Sunnyvale, Calif.)”, for which the “increase in heme synthesis” value in series [3] (0.1 μM Aβ, 2 h incubation) amounted to 40%; in series [3] (1 μM Aβ, 1 h incubation) it was 4 fold; in series [3] (1 μM Aβ, 2 h incubation), 2.5 fold; in series [3] (10 μM Aβ, 1 h incubation) it was 13 fold; in series [3] (10 μM Aβ, 2 h incubation) it was 18 fold. Moreover, the synthesis of heme result in series [3] (Aβ 0.1, 1 and 10 μM) was “significantly increased”. Moreover, the “toxicity by trypan blue exclusion” value with SHSY5Y cells is given as “not toxic”. This compound yielded an increase in iron in series [4] (0.1 μM Aβ, 2 h incubation) of 55%. Moreover, the “increase in iron uptake” value in series [4] (1 μM Aβ, 1 h incubation) is reported as 4 fold; in series [4] (10 μM Aβ, 1 h incubation) it was 12.5 fold; in series [4] (10 μM Aβ, 2 h incubation), 8 fold. For the same compound, the intracellular iron result in series [4] (Aβ 0.1, 1 and 10 μM) is on record as “significantly increased”.

For azure B, the “identified as inhibitor” value at Aβ-heme peroxidase is given as “inhibitors”.

Take coproporphyrin I: the “identified as inhibitor” value on Aβ-heme peroxidase is listed as “inhibitors”.

Regarding coproporphyrin III, the “identified as inhibitor” value at Aβ-heme peroxidase is recorded as “inhibitors”.

uroporphyrin I: the “identified as inhibitor” value on Aβ-heme peroxidase is on record as “inhibitors”.

As for uroporphyrin III, the “identified as inhibitor” value on Aβ-heme peroxidase is recorded as “inhibitors”.
